Results published in ChEMBL document CHEMBL1909046, “DrugMatrix in vitro pharmacology data”.

Tests used:
[1] = target: Protein phosphatase 3 catalytic subunit alpha (Homo sapiens, UniProt Q08209); set-up: species or system Escherichia coli;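 also: inhibition of calcineurin (PP2B) enzyme activity, measured with DiFMUP as the substrate; in other assays of this panel Not Active means under 50% inhibition at 10 µM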
[2] = target: T1, Adenosine receptor A1 (Homo sapiens, UniProt P30542); type: cell membranes, CHO, Membrane; conditions: cho;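 also: radioligand binding assay at the adenosine A1 receptor, with DPCPX serving as the labelled ligand; in other assays of this panel Not Active means under 50% inhibition at 10 µM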
T1 sequence (P30542 whole entry): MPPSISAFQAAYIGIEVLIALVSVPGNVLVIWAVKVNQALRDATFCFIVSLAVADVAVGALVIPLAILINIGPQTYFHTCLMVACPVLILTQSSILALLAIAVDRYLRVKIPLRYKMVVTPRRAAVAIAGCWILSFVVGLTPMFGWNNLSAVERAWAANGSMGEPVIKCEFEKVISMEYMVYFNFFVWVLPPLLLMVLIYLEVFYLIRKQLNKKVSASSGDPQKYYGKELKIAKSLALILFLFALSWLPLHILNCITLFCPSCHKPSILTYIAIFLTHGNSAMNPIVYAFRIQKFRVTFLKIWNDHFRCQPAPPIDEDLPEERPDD

[3] = DRUGMATRIX: beta-Lactamase enzyme inhibition (substrate: Nitrocefin); set-up: species or system Bacillus cereus; conditions: Not Active = under 50% inhibition at 10 µM
[4] = target: T2, Neuropeptide Y receptor type 1 (Homo sapiens, UniProt P25929); type: cell membranes, Membrane; conditions: sk-n-mc; also: in other assays of this panel Not Active means under 50% inhibition at 10 µM
T2 sequence (P25929 whole entry): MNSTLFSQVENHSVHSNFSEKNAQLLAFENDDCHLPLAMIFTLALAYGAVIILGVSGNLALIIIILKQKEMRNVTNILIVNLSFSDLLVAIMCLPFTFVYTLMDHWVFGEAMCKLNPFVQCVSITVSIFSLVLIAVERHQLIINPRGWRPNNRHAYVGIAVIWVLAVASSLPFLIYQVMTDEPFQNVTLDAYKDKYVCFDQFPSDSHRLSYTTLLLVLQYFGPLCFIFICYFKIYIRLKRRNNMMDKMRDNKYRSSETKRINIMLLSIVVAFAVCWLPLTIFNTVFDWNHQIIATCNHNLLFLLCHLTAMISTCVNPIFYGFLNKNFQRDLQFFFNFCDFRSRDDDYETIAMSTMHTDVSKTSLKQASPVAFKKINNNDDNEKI

[5] = DRUGMATRIX: Serotonin (5-Hydroxytryptamine) 5-HT3 radioligand binding (ligand: [3H] GR-65630); type: cell membranes, Membrane; conditions: hek293; Not Active = under 50% inhibition at 10 µM
[6] = target: Platelet-activating factor receptor (Homo sapiens, UniProt P25105); type: tissue-based; also: in other assays of this panel Not Active means under 50% inhibition at 10 µM
[7] = target: T3, C-C chemokine receptor type 4 (Homo sapiens, UniProt P51679); type: cell membranes, Chem-1, Membrane; conditions: chem-1; also: in other assays of this panel Not Active means under 50% inhibition at 10 µM
T3 sequence (P51679 whole entry): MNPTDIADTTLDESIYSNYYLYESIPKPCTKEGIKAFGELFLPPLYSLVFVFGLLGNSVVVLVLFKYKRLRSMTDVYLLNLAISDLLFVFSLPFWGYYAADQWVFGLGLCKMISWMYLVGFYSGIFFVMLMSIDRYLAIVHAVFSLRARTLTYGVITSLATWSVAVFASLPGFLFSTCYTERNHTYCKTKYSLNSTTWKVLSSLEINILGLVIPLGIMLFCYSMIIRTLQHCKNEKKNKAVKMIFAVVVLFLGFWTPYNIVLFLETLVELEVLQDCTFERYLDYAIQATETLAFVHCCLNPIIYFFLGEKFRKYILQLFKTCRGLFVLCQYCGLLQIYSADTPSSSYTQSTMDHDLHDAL

[8] = target: T4, Cholecystokinin receptor type A (Homo sapiens, UniProt P32238); type: cell membranes, Membrane; conditions: 1321-n1; also: in other assays of this panel Not Active means under 50% inhibition at 10 µM
T4 sequence (P32238 whole entry): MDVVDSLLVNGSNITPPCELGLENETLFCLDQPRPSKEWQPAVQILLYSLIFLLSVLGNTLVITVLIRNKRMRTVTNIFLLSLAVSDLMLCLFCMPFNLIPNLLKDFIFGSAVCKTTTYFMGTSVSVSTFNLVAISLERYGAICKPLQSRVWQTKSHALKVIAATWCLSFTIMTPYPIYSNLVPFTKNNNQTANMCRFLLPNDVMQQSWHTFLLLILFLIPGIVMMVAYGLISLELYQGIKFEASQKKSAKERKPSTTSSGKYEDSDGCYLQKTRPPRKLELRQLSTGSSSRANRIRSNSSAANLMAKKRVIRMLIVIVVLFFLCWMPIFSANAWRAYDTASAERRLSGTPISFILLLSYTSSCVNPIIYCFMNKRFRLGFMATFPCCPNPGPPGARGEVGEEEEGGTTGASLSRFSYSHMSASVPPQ

Sequence of Platelet-activating factor receptor (P25105 whole entry): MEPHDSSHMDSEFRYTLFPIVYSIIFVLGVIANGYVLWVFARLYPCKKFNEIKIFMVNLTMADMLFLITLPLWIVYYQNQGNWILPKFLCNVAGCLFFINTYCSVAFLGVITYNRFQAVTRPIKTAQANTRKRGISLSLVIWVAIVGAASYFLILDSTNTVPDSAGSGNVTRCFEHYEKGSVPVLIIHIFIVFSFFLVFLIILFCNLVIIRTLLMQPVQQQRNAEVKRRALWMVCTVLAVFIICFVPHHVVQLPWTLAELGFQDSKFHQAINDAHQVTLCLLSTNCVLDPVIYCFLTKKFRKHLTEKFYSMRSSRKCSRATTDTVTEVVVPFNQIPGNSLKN

OC[C@H]1O[C@@H]2O[C@H]3[C@H](O)[C@@H](O)[C@@H](O[C@H]4[C@H](O)[C@@H](O)[C@@H](O[C@H]5[C@H](O)[C@@H](O)[C@@H](O[C@H]6[C@H](O)[C@@H](O)[C@@H](O[C@H]7[C@H](O)[C@@H](O)[C@@H](O[C@H]1[C@H](O)[C@H]2O)O[C@@H]7CO)O[C@@H]6CO)O[C@@H]5CO)O[C@@H]4CO)O[C@@H]3CO [ALFADEX]
Not Active: IC50 [1] | IC50 [2] | IC50 [3] | Ki [3] | IC50 [4] | IC50 [5] | Ki [5] | IC50 [6] | IC50 [7] | IC50 [8]

Oc1ncnc2[nH]ncc12 [ALLOPURINOL]
Not Active: IC50 [1] | IC50 [2] | IC50 [3] | Ki [3] | IC50 [4] | IC50 [5] | Ki [5] | IC50 [6] | IC50 [7] | IC50 [8]

C=CCO [ALLYL ALCOHOL]
Not Active: IC50 [1] | IC50 [2] | IC50 [3] | Ki [3] | IC50 [4] | IC50 [5] | Ki [5] | IC50 [6] | IC50 [7] | IC50 [8]

Nc1nc(N)c2nc(CNc3ccc(C(=O)N[C@@H](CCC(=O)O)C(=O)O)cc3)cnc2n1 [AMINOPTERIN]
Not Active: IC50 [1] | IC50 [2] | IC50 [3] | Ki [3] | IC50 [4] | IC50 [5] | Ki [5] | IC50 [6] | IC50 [7] | IC50 [8]

Nc1ccc(C(=O)O)c(O)c1 [AMINOSALICYLIC ACID]
Not Active: IC50 [1] | IC50 [2] | IC50 [3] | Ki [3] | IC50 [4] | IC50 [5] | Ki [5] | IC50 [6] | IC50 [7] | IC50 [8]

C[C@@H]1[C@H](O)[C@@H](C)/C=C/C=C/C=C/C=C/C=C/C=C/C=C/[C@H](O[C@@H]2O[C@H](C)[C@@H](O)[C@H](N)[C@@H]2O)C[C@@H]2O[C@](O)(C[C@@H](O)C[C@@H](O)[C@H](O)CC[C@@H](O)C[C@@H](O)CC(=O)O[C@H]1C)C[C@H](O)[C@H]2C(=O)O [AMPHOTERICIN B]
Not Active: IC50 [1] | IC50 [2] | IC50 [3] | Ki [3] | IC50 [4] | IC50 [5] | Ki [5] | IC50 [6] | IC50 [7] | IC50 [8]

CC(C)(C#N)c1cc(Cn2cncn2)cc(C(C)(C)C#N)c1 [ANASTROZOLE]
Not Active: IC50 [1] | IC50 [2] | IC50 [3] | Ki [3] | IC50 [4] | IC50 [5] | Ki [5] | IC50 [6] | IC50 [7] | IC50 [8]

C[C@]12CC[C@@H](O)C[C@@H]1CC[C@@H]1[C@@H]2CC[C@]2(C)C(=O)CC[C@@H]12 [ANDROSTERONE]
Not Active: IC50 [1] | IC50 [2] | IC50 [3] | Ki [3] | IC50 [4] | IC50 [5] | Ki [5] | IC50 [6] | IC50 [7] | IC50 [8]

CC(C)NCC(O)COc1ccc(CC(N)=O)cc1 (stereo not given) [ATENOLOL]
Not Active: IC50 [1] | IC50 [2] | IC50 [3] | Ki [3] | IC50 [4] | IC50 [5] | Ki [5] | IC50 [6] | IC50 [7] | IC50 [8]

NCC(CC(=O)O)c1ccc(Cl)cc1 (stereo not given) [BACLOFEN]
Not Active: IC50 [1] | IC50 [2] | IC50 [3] | Ki [3] | IC50 [4] | IC50 [5] | Ki [5] | IC50 [6] | IC50 [7] | IC50 [8]

O=C(O)c1ccccc1 [BENZOIC ACID]
Not Active: IC50 [1] | IC50 [2] | IC50 [3] | Ki [3] | IC50 [4] | IC50 [5] | Ki [5] | IC50 [6] | IC50 [7] | IC50 [8]

c1ccc2sc(SSc3nc4ccccc4s3)nc2c1 [BENZOTHIAZYL DISULFIDE]
Not Active: IC50 [1] | IC50 [2] | IC50 [3] | Ki [3] | IC50 [4] | IC50 [5] | Ki [5] | IC50 [6] | IC50 [7] | IC50 [8]

OC[C@H]1O[C@@H]2O[C@H]3[C@H](O)[C@@H](O)[C@@H](O[C@H]4[C@H](O)[C@@H](O)[C@@H](O[C@H]5[C@H](O)[C@@H](O)[C@@H](O[C@H]6[C@H](O)[C@@H](O)[C@@H](O[C@H]7[C@H](O)[C@@H](O)[C@@H](O[C@H]8[C@H](O)[C@@H](O)[C@@H](O[C@H]1[C@H](O)[C@H]2O)O[C@@H]8CO)O[C@@H]7CO)O[C@@H]6CO)O[C@@H]5CO)O[C@@H]4CO)O[C@@H]3CO [BETADEX]
Not Active: IC50 [1] | IC50 [2] | IC50 [3] | Ki [3] | IC50 [4] | IC50 [5] | Ki [5] | IC50 [6] | IC50 [7] | IC50 [8]
